Assay type in all cases: physicochemical
Data set [1] in a line: Determination of the moisture stability (climate chamber, PXRD analysis). As for the experimental part: Powder X-ray diffraction (PXRD) was performed with a PANalytical X'Pert PRO diffractometer equipped with a theta/theta coupled goniometer in transmission geometry, Cu-Kα1,2 radiation (wavelength 0.15419 nm) with a focusing mirror and a solid state PIXcel detector. Diffractograms were recorded at a tube voltage of 45 kV and a tube current of 40 mA, applying a stepsize of 0.013° 2-Theta with 40s per step (255 channels) in the angular range of 2° to 40° 2-Theta at ambient conditions. Determination of the moisture stability Moisture stability at accelerated stability conditions was performed in a Memmert constant climate chamber HPP110.

Data set [2] can be described thus: Determination of the solubility in water (solvent addition technique). Conditions: 25 °C, thermodynamic from solid, in water at 25°C, estimated by solvent addition. Here is the method:
About 10 mg of crystalline betrixaban salt were weighed out into a vial. Water was added to the vial in aliquots of 500 µL and 200 µL until the salt was dissolved. In between the water additions the samples was sonicated for about 5 min, followed by shaking at 25°C for about 10 to 15 min.

Data set [3] in a line: Gravimetric moisture sorption/desorption (GMSD) isotherms. Conditions: for hygroscopicity according to the GMSD isotherms: 25 ± 0.1°C, 0 to 95% RH; for water: when measured at 0 to 95% RH and 25 ± 0.1°C. Here is the method:
Gravimetric moisture sorption/desorption
Gravimetric moisture sorption/desorption (GMSD) isotherms were recorded with an SPSx-1µ moisture sorption analyzer (ProUmid, Ulm). The measurement cycle was started at ambient relative humidity (RH) of 30%. Relative humidity was then decreased to 5% RH in 5% steps, followed by a further decrease to 3% RH and to 0% RH. For this isotherm, as black filled square with a white x inside is used in the respective figures. Afterwards RH was increased from 0% to 95% RH in a sorption cycle and decreased to 0 % in a desorption cycle in 5% steps. Finally RH was increased to 40% RH in 5% steps. As to the isotherm obtained by the last step, a black filled square with a white star inside is used as symbol in the respective figures.
The time per step was set to a minimum of 2 hours and a maximum of 6 hours. If an equilibrium condition with a constant mass of ± 0.01 % within 1 hour was reached before the maximum time for all examined samples the sequential humidity step was applied before the maximum time of 6 hours. If no equilibrium was achieved the consecutive humidity step was applied after the maximum time of 6 hours. The temperature was 25 ± 0.1°C.

Where [4] appears, read: 8 weeks at 40°C and a relative humidity of 75%.
The mark [5] stands for this setting: listed as crystalline form A of betrixaban hydrochloride, hydrochloride.
The mark [6] stands for this setting: listed as crystalline form B of betrixaban hydrobromide, hydrobromide.

SMILES strings stand for the structures. Structures can show the parent of a compound that is named as a salt.

As to `COc1ccc(NC(=O)c2ccc(C(=N)N(C)C)cc2)c(C(=O)Nc2ccc(Cl)cn2)c1` [Betrixaban hydrochloride, form B, betrixaban hydrochloride], the “PXRD pattern after storage compared with the initial pattern (moisture stability test)” value in data set [1] (4 weeks at 40°C and a relative humidity of 75%) is given as “essentially identical”.
In the case of `COc1ccc(NC(=O)c2ccc(C(=N)N(C)C)cc2)c(C(=O)Nc2ccc(Cl)cn2)c1` [Betrixaban hydrochloride, form A, betrixaban hydrochloride], in data set [1] (setting [4]), the “PXRD pattern after storage compared with the initial pattern (moisture stability test)” value is given as “essentially identical”. The solubility in data set [2] was above 5000 µg/mL. Further, in data set [3] (setting [5]), the “hygroscopicity according to the GMSD isotherms” value is reported as “non-hygroscopic” and the water is on record as at most 0.2%.
On to `COc1ccc(NC(=O)c2ccc(C(=N)N(C)C)cc2)c(C(=O)Nc2ccc(Cl)cn2)c1` [Betrixaban hydrobromide, form B, betrixaban hydrobromide], for which the “PXRD pattern after storage compared with the initial pattern (moisture stability test)” value in data set [1] (setting [4]) was “essentially identical”. Also, in data set [3] (setting [6]), the “hygroscopicity according to the GMSD isotherms” value is listed as “moderately hygroscopic” and the water was at most 1.9%.

What is called solubility is the dissolved amount per volume that the medium holds.

Source of the values: patent publication EP3293174A1, “CRYSTALLINE SALTS OF BETRIXABAN” (SANDOZ AG, priority 2016, dated 2018).
